In patent US5804576A, “Derivatives of 5-androsten-17-ones and 5-androstan-17-ones” (Research Corporation Technologies, Inc., priority 1986, dated 1998):

Columns and labels:
rat uterus [1] = experiment: Uterotrophic test for estrogenic activity, oral; format: in vivo; conditions: 14 μg/kg oral; 3 days; n = 6
Description: Uterotrophic Test for Estrogenic Activity. Compound 16 vs. DHEA and Estradiol-benzoate. Compounds Given by Oral Administration.
Twenty-two day old rats were obtained from Charles River Laboratories. Animals were used at 29 days of age. Test steroids were suspended by homogenization in sesame oil. Rats were orally intubated at 1-2 P.M. for 3 days with a test steroid in sesame oil or with sesame oil alone (control). On the 4th day the animals were killed and the uteri were removed and weighed.

[2] = system: rat uterus; mouse seminal vesicle plus prostate; experiment: Sex steroid hormonal or anti-hormonal activity (estrogenic, anti-estrogenic, androgenic, anti-androgenic); conditions: in vivo
Method: Female CD rats, 26-27 days old, were injected subcutaneously for 3 days with one of the compounds of the present invention at 60 mg/kg in propylene glycol. Controls received propylene glycol alone. On the 4th day the rats were killed and the uteri were dissected out and weighed. The results are given below:
(§1) (a) Male A/J mice (5 weeks old) were obtained from the Jackson Laboratory and were housed in polycarbonate cages (5 mice/cage) in animal quarters maintained at 24°[…] C. with 12 hours of light and 12 hours of darkness each day. One week after arrival, the mice were placed on a chow diet containing one of the test compounds of the present invention at 0.36%. After 4 weeks of treatment, the above mice were killed, and the seminal vesicles and prostate glands were dissected out and weighed.

[3] = target: T1, purified bovine adrenal G6PDH (Bos taurus, UniProt F1MMK2); experiment: Inhibition of purified bovine adrenal G6PDH; format: biochemical; conditions: for inhibition at 1 µM: Conc. 1 μm; for inhibition at 1 µM / inhibition at 10 µM: read-out: Percent Inhibition (G6PDH); for inhibition at 10 µM: Conc. 10 μm
T1 construct: full-length, wild type, no tag
T1 sequence (F1MMK2 31-70): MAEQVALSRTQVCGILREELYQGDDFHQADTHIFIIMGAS
T1 sequence (F1MMK2 101-575): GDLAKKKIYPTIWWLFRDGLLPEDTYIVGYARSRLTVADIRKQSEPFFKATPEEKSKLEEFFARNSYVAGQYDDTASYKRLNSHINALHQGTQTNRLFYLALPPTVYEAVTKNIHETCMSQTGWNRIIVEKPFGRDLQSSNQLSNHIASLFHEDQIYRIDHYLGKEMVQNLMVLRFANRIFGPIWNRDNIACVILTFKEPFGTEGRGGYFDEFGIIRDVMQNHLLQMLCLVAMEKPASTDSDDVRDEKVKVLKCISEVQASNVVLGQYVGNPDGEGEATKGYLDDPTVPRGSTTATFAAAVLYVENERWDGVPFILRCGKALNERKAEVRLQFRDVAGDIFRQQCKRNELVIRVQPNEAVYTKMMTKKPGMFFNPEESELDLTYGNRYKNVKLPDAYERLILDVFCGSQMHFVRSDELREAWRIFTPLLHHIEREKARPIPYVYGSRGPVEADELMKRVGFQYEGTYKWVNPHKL
Description: The compounds listed below are screened as inhibitors of purified bovine adrenal G6PDH activity as one predictor of cancer preventive action. The assay for testing the inhibition of purified bovine adrenal G6PDH is according to the procedure by Oertel, G. W. and Rebelein, I. in Biochem. Biophys. Acta, 184, 459-460 (1969). The results are given below in Table I:
Both of the above tests, i.e., the inhibition of mammalian glucose-6-phosphate dehydrogenase (G6PDH) and the inhibition of tumor promoter (TPA) stimulation of ^3 H-thymidine incorporation in mouse epidermis are recognized as indicators of cancer prophylactic activity. The following Table compares the efficacy of representative compounds of the present invention in these two tests with that of DHEA: […]

[4] = system: seminal vesicles plus prostate glands; experiment: Androgenic and anti-androgenic activity (seminal vesicle plus prostate weight); format: in vivo, mouse (male A/J)
Method: Male A/J mice (5 weeks old) were obtained from the Jackson Laboratory and were housed in polycarbonate cages (5 mice/cage) in animal quarters maintained at 24°±1° C. with 12 hours of light and 12 hours of darkness each day. One week after arrival, mice were placed on a chow diet containing either 0.18% or 0.09% 16 or without steroid. Mice were weighed weekly. After 4 weeks, the mice were killed, and the seminal vesicles plus prostate glands were dissected out and weighed.
as §1

rat uterus [5] = experiment: Estrogenic and anti-estrogenic activity (uterine weight, s.c., CD rats); format: in vivo, rat (female CD); conditions: for Mean Uterine Weight ± S.D.: 60 mg/kg s.c., 3 days, Tables 16 and 17
Method: Female CD rats, 26-27 days old, were used. Rats were injected subcutaneously for 3 days with either DHEA or 16 in propylene glycol. Control rats received propylene glycol alone. The rats were killed on the 4th day and the uteri were removed and weighed.
Female CD rats, 26-27 days old, were injected subcutaneously for 3 days with one of the compounds of the present invention at 60 mg/kg in propylene glycol. Controls received propylene glycol alone. On the 4th day the rats were killed and the uteri were dissected out and weighed.

[6] = Anti-obesity test (body weight, food consumption); format: in vivo, mouse (male A/J); conditions: for mean weekly weight ± S.D.: 0.36% of diet, n = 5; for anti-weight effect (in words): 400 mg/kg repeated (DHEA), cancer preventive dosages (19, 20); for weekly weight (Table 13): 0.54% in food
Method: Male A/J mice (5 weeks old) were obtained from the Jackson Laboratory and were housed in polycarbonate cages (5 mice/cage) in animal quarters maintained at 24°±1° C. with 12 hours of light and 12 hours of darkness each day. One week after arrival, the mice were placed on a chow diet containing varying concentrations of DHEA or other steroid. Animals were weighed weekly; food consumption was determined weekly by subtracting the amount of food remaining in the cage from the amount added.
Male A/J (5 weeks old) were obtained from the Jackson Laboratory and were housed in polycarbonate cages (5 mice/cage) in animal quarters maintained at 24°±1° C. with 12 hours of light and 12 hours of darkness each day. One week after arrival, the mice were placed on a diet containing either DHEA, 19, or without steroid. Animals were weighed weekly. The concentration of DHEA or 19 used in the food was 0.54%.
Male A/J mice (5 weeks old) were obtained from the Jackson Laboratory and were housed in polycarbonate cages (5 mice/cage) in animal quarters maintained at 24°±1° C. with 12 hours of light and 12 hours of darkness each day. One week after arrival, the mice were placed on a show diet containing DHEA, 16, or 21 at 0.36%. Animals were weighed weekly.

[7] = system: [3H]DMBA binding to skin DNA; experiment: [3H]DMBA binding to skin DNA, oral steroid; format: in vivo, mouse (male A/J); conditions: 12 hours
Method: (§2) Male A/J mice were orally intubated with steroid suspended in sesame oil (0.5 ml/mouse) at the indicated dose. Mice not receiving steroid were given sesame oil alone. Food restricted mice received approximately 60% of food of Ad libitum fed for two weeks. One hour after oral intubation, topical [^3 H]DMBA was applied to the skin, and the amount bound to DNA was determined 12 hours later as described in Table 4.
as §2, with “alone.” for “alone. Food restricted mice received approximately 60% of food of Ad libitum fed for two weeks.”

[8] = system: TPA (Tumor Promoter) Stimulation of Mouse Epidermal DNA; experiment: Inhibition of TPA stimulation of mouse epidermal DNA synthesis (3H-thymidine incorporation), oral; format: in vivo, mouse (ICR male); conditions: oral, single administration
Description: Synthesis rate by orally administered steroids.
The inhibition of tumor promoter stimulation of mouse epidermal DNA synthesis rate by steroids may also contribute to cancer preventive activity. The following assay is used:
ICR male mice (7-9 weeks old) were shaved on the back 1-2 days before use. Only mice showing no hair regrowth were used. Animals were orally intubated with a particular steroid suspended by homogenization in sesame oil or with sesame oil alone (controls). One hour later TPA (10 μg in 0.2 ml of acetone) or acetone vehicle was applied topically to the shaved skin. Twenty hours later, mice were injected i.p. with 60 μCi of ^3 H-thymidine 20 minutes before sacrifice. The animals were killed by cervical dislocation and the residual hair was removed with a depilatory agent. Epidermal scrapings were prepared according to the procedures of Hennings et al. (Cancer Res. 28, 53, 1968), homogenized in distilled water at 4° C., and the macromolecules precipitated with 0.4N trichloroacetic acid (TCA). Following 6 washes with absolute ethanol at room temperature, the nucleic acids were hydrolyzed with 0.5N TCA at 70° C. for 5 minutes. The hydrolysate (0.2 ml aliquots) were counted in an Intertechnique scintillation counter and assayed for DNA by the diphenylamine reaction.
The data are expressed as counts per minute (cpm) of tritium per μg of DNA.
A similar oral dose-response experiment with compound 16 and DHEA was performed.
Both of the above tests, i.e., the inhibition of mammalian glucose-6-phosphate dehydrogenase (G6PDH) and the inhibition of tumor promoter (TPA) stimulation of ^3 H-thymidine incorporation in mouse epidermis are recognized as indicators of cancer prophylactic activity. The following Table compares the efficacy of representative compounds of the present invention in these two tests with that of DHEA:
(§3) Male ICR mice were orally intubated with steroid suspended in sesame oil (0.5 ml/mouse) at the indicated dose. Mice not receiving steroid were given sesame oil alone. One hour later mice received topical application of TPA and 20 hours later the rate of ^3 H-thymidine incorporation into the epidermis was determined as described in Table 4.
as §3, with “TPA,” for “TPA”

[9] = system: (3H) DMBA binding to skin DNA; experiment: [3H]DMBA binding to mouse skin DNA, topical steroid; format: in vivo, mouse (A/J); conditions: topical; A/J mouse
Description: Skin tumors can be induced in the mouse either by weekly application of a carcinogen such as […] (DMBA), or alternatively,by a single sub-threshold dose of the carcinogen followed by twice weekly applications of the tumor promoter tetradecanoylphorbol-13-acetate (TPA). In order to exert its carcinogenic effect, DMBA must be metabolized by an NADPH-dependent mixed-function oxidase to chemically reactive intermediates which bind covalently to DNA and produce mutations leading to malignant transformation. […] This effect of DHEA very probably is a result of the inhibition of G6PDH and lowering of the intracellular pool of NADPH, which is a co-factor for the mixed-function oxidase activation of DMBA.
Binding of [^3 H]DMBA to mouse skin DNA was determined as described in Pashko, L. L., and Schwartz, A. G. (1983), Effect of food restriction, dehydroepiandrosterone, or obesity on the binding of ^3 H-7,12-dimethylbenz(a)-anthracene to mouse skin DNA, J. Gerontol., 38, 8-12. Values are mean±SD for 3 individual determinations, with pooled tissue from 2 mice used for each determination. DHEA or testosterone (400 ug in 0.2 ml acetone) was applied to the skin one hour before [^3 H]DMBA. The mean weight of the food restricted mice was 18.5±1.0 gm, n=6, of the ad libitum fed, 27.4±1.0 gm, n=6, of the ad libitum fed treated with DHEA, 28.2±0.9 gm, n=6, and of the ad libitum fed treated with testosterone, 28.3±0.9 gm, n=6, following two weeks of feeding. The average food consumed was, in gm/mouse/day, 2.2, 3.8, 3.8 and 4.0 for the food restricted, ad libitum fed, ad libitum fed plus DHEA, and ad libitum fed plus testosterone groups, respectively.

[10] = system: seminal vesicles plus prostate glands; experiment: Androgenic and anti-androgenic activity (seminal vesicle plus prostate weight); format: in vivo, mouse (male A/J); conditions: con't. experiment; five weeks; DHEA 0.54%; n = 5

## C[C@]12CC[C@@H]3c4ccc(OC(=O)c5ccccc5)cc4CC[C@H]3[C@@H]1CC[C@@H]2O [Estradiol-benzoate, reference compound]
Rat uterus [1]
  Mean Uterine Weight: 244 ± 44 Mgs

## C[C@H]1CC[C@@]2(C)C(=CC[C@@H]3[C@@H]2CC[C@]2(C)C(=O)[C@H](C)C[C@@H]32)C1 [Compound 21]
[2]
  estrogenic, anti-estrogenic, androgenic, anti-androgenic activity (in words): neither estrogenic, anti-estrogenic, androgenic, nor anti-androgenic activity
[3]
  G6PDH inhibition compared with DHEA (in words): more effective inhibitorsof G6PDH than is DHEA
  inhibition at 1 µM: 36%
  inhibition at 10 µM: 48%
[4]; 0.36% of diet, 4 weeks, n = 5
  Mean Seminal Vesicle plus Prostate Weight ± S.D.: 5.1 ± 1.4 mg/100 gm body weight
Rat uterus [5]
  Mean Uterine Weight ± S.D.: 1.76 ± 0.21 mg/100 gm body weight
[6]; week 0
  mean weekly weight ± S.D.: 22.7 ± 1.9 grams
[6]; week 1
  mean weekly weight ± S.D.: 20.1 ± 2.1 grams
[6]; week 2
  mean weekly weight ± S.D.: 19.9 ± 2.3 grams
[6]; week 3
  mean weekly weight ± S.D.: 22.2 ± 2.3 grams

## C[C@H]1CC[C@@]2(C)C(=CC[C@@H]3[C@@H]2CC[C@]2(C)C(=O)[C@H](F)C[C@@H]32)C1 [Compound 20]
[3]
  inhibition at 1 µM: 55%
  inhibition at 10 µM: 46%
[7]; 100 mg/kg p.o.
  SPECIFIC ACTIVITY ([3H]DMBA bound to skin DNA): 48.4 ± 2.6 cpm/ug DNA
[7]; 200 mg/kg p.o.
  SPECIFIC ACTIVITY ([3H]DMBA bound to skin DNA): 43.7 ± 1.5 cpm/ug DNA
[8]
  TPA stimulation in 3H-thymidine incorporation (in words): to a degree comparable to that produced by food restriction at doses well below 400 mg/kg
[6]
  anti-weight effect (in words): do not produce an anti-weight effect

## C[C@]12CCC(Cl)CC1=CC[C@@H]1[C@@H]2CC[C@]2(C)C(=O)CC[C@@H]12 (stereo partly drawn) [3 chloro-5-androstene-17-one]
[2]
  estrogenic, anti-estrogenic, androgenic, anti-androgenic activity (in words): without any demonstrable estrogenic, androgenic, anti-androgenic or anti-estrogenic activity

## C[C@]12CC[C@H]3[C@@H](CCC4=CC(=O)CC[C@@]43C)[C@@H]1CC[C@@H]2O [testosterone]
[9]
  rate of binding of topically applied 3H-DMBA to skin DNA (in words): without inhibitory effect

## C[C@H]1CC[C@@]2(C)C(=CC[C@@H]3[C@@H]2CC[C@]2(C)C(=O)[C@H](O)C[C@@H]32)C1 [Compound 19]
[10]
  Mean Seminal Vesicle plus Prostate Weight ± S.D.: 6.45 ± 0.65 mg/100 gm body weight
[2]
  estrogenic, anti-estrogenic, androgenic, anti-androgenic activity (in words): neither estrogenic, anti-estrogenic, androgenic, nor anti-androgenic activity
[3]
  G6PDH inhibition compared with DHEA (in words): more effective inhibitorsof G6PDH than is DHEA
  inhibition at 1 µM: 29%
  inhibition at 10 µM: 64%
[4]; diet, male A/J mice
  androgenic / anti-androgenic effect, seminal vesicle plus prostate weight (in words): no significant effect on seminal vesicle plus prostate gland weight
Rat uterus [5]
  Mean Uterine Weight ± S.D.: 2.16 ± 0.5 mg/100 gm body weight
Rat uterus [5]; s.c., 60 mg/kg or higher, female CD rats
  estrogenic / anti-estrogenic effect, uterine weight (in words): no apparent estrogenic nor anti-estrogenic activity
[7]; 400 mg/kg p.o.
  SPECIFIC ACTIVITY ([3H]DMBA bound to skin DNA): 20.4 ± 1.1 cpm/ug DNA
[8]
  TPA stimulation in 3H-thymidine incorporation (in words): to a degree comparable to that produced by food restriction at doses well below 400 mg/kg
[6]
  anti-weight effect (in words): do not produce an anti-weight effect
[6]; week 0
  weekly weight (Table 13): 21.1 ± 0.8
[6]; week 1
  weekly weight (Table 13): 19.1 ± 0.9
[6]; week 2
  weekly weight (Table 13): 18.4 ± 1.0
[6]; week 3
  weekly weight (Table 13): 18.7 ± 1.4
[6]; week 4
  weekly weight (Table 13): 19.7 ± 1.1
[6]; week 5
  weekly weight (Table 13): 20.6 ± 0.4
